According to US20230087118A1, “IMIDAZO[1,2-a][sequence] DERIVATIVES AND THEIR USE IN THE TREATMENT OF DISEASE” (priority 2019, published 2023):
Structures can show the parent of a compound that is named as a salt. Where two headings read alike, the source gives them in different places.

Target: T1, IRAK4 (Homo sapiens, UniProt Q9NWZ3)
T1 sequence (Q9NWZ3 1-460): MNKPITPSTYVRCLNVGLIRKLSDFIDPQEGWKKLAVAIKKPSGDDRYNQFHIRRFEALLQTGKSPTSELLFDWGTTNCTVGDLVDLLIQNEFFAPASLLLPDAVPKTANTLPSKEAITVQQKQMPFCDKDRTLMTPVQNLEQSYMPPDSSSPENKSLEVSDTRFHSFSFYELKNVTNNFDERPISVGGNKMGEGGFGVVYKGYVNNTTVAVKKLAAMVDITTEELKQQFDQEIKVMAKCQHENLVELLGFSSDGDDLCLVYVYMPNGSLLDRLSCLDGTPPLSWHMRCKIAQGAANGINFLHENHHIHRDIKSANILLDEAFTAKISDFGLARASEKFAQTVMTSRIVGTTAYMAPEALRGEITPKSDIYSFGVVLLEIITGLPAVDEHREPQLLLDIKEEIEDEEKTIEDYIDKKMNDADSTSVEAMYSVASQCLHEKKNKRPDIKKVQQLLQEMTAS
Test: biochemical

[1] = IRAK4 Biochemical Assay (1 mM ATP, 2 h) IC50 (μM), 1 mM ATP, 2 h, 100 pM IRAK4

| IC50 | IC50 [1] | SMILES |
| --- | --- | --- |
| 0.0003 µM | – | COc1nscc1NC(=O)c1cn2cc(C34CCC(C)(C3)OC4)nc2cc1OC(C)C (stereo not drawn) [Example 513, 7-Isopropoxy-N-(3-methoxyisothiazol-4-yl)-2-(1-methyl-2-oxabicyclo[2.2.1]heptan-4-yl)imidazo[1,2-a]pyridine-6-carboxamide] |
| 0.0005 µM | – | COc1ncccc1NC(=O)c1cn2cc(C34COC(C)(C3)C4)nc2cc1OC(C)C [Example 216] |
| 0.0003 µM | – | CC(C)Oc1cc2nc([C@]34CC[C@](C)(C3)OC4)cn2cc1C(=O)Nc1cccn(C(F)F)c1=O (single isomer, unassigned) [Example 625] |
| 0.123 µM | – | COc1cnccc1NC(=O)c1cn2cc(C3CCOCC3)nc2cc1OC [Example 195] |
| – | 0.002 µM | CC(C)Oc1cc2nc(C34COC(C)(C3)C4)c(F)n2cc1C(=O)Nc1cccc(C(F)F)n1 [Example 324, N-(6-(difluoromethyl)pyridin-2-yl)-3-fluoro-7-isopropoxy-2-(1-methyl-2-oxabicyclo[2.1.1]hexan-4-yl)imidazo[1,2-a]pyridine-6-carboxamide trifluoroacetate] |
| 0.0004 µM | – | C[C@]12CC[C@](c3cn4cc(C(=O)Nc5cccc(C(F)F)n5)nc(OC5CCC5)c4n3)(CO1)C2 (single isomer, unassigned) [Example 627] |
| 0.0055 µM | – | CC(C)Oc1cc2nc(C34CCC(C)(C3)OC4)cn2cc1C(=O)Nc1nc(C(F)(F)F)cs1 (stereo not drawn) [Example 503, 7-Isopropoxy-2-(1-methyl-2-oxabicyclo[2.2.1]heptan-4-yl)-N-(4-(trifluoromethyl)thiazol-2-yl)imidazo[1,2-a]pyridine-6-carboxamide] |
| 0.264 µM | – | O=C(Nc1cccc(C(F)F)n1)c1cn2cc(C3CCOCC3)nc2cn1 [Example 83] |
| 0.0011 µM | – | Cn1cccc(NC(=O)c2cn3cc(C45CCC(C)(C4)OC5)nc3cc2OC2CCCC2)c1=O (stereo not drawn) [Example 558] |
| 0.0075 µM | – | CCOc1cc(C(=O)Nc2cccc(C(F)F)n2)cn2cc(C3CCCOC3)nc12 (stereo not drawn) [Example 52, N-(6-(difluoromethyl)pyridin-2-yl)-8-ethoxy-2-(tetrahydro-2H-pyran-3-yl)imidazo[1,2-a]pyridine-6-carboxamide] |
| 0.0027 µM | – | COc1cc2nc(C3CCOCC3)cn2cc1C(=O)Nc1cccnc1OC [Example 193] |
| 0.0023 µM | – | CCn1ccc(NC(=O)c2cn3cc(C45CCC(C)(C4)OC5)nc3cc2OC(C)C)n1 (stereo not drawn) [Example 508, N-(1-ethyl-1H-pyrazol-3-yl)-7-isopropoxy-2-(1-methyl-2-oxabicyclo[2.2.1]heptan-4-yl)imidazo[1,2-a]pyridine-6-carboxamide] |
| 0.0002 µM | – | CC(C)Oc1cc2nc([C@@]34CC[C@@](C)(C3)OC4)cn2cc1C(=O)Nc1cnn2cccnc12 (single isomer, unassigned) [Example 615] |
| 0.0002 µM | – | CC(C)Oc1nc2nc([C@]34CC[C@](C)(C3)OC4)cn2cc1C(=O)Nc1cccc(C(F)F)n1 (single isomer, unassigned) [Example 577] |
| 0.0004 µM | – | C[C@@H](Oc1cc2nc(C34COC(C)(C3)C4)cn2cc1C(=O)Nc1cccc(C(F)F)n1)C1CC1 (single isomer, unassigned) [Example 655] |
| 0.208 µM | – | COc1cc2nc(C3CCOCC3)cn2cc1C(=O)Nc1ccn(CC2CC2)n1 [Example 184] |
| 0.0065 µM | – | CC(C)Oc1nc(C(=O)Nc2ccn(C)n2)cn2cc([C@]34CC[C@](C)(C3)OC4)nc12 (single isomer, unassigned) [Example 593] |
| 0.0509 µM | – | COc1nc(C(=O)Nc2ccn(C)n2)cn2cc(C3CCOCC3)nc12 [Example 88] |

| IC50 | IC50 [1] | SMILES |
| --- | --- | --- |
| 0.0047 µM | – | CCOc1nc(C(=O)Nc2cccnc2OC)cn2cc(C3CCOC3)nc12 (stereo not drawn) [Example 273, 8-Ethoxy-N-(2-methoxypyridin-3-yl)-2-(tetrahydrofuran-3-yl)imidazo[1,2-a]pyrazine-6-carboxamide] |
| 0.0001 µM | – | CC(C)Oc1cc2nc([C@@]34CC[C@@](C)(C3)OC4)cn2cc1C(=O)Nc1cccc(C(F)F)n1 (single isomer, unassigned) [Example 609] |
| 0.0001 µM | – | CC(C)Oc1cc2nc([C@]34CC[C@H](C3)OC4)cn2cc1C(=O)Nc1cccc(C(F)F)n1 (single isomer, unassigned) [Example 591] |
| 0.0034 µM | – | CC(C)Oc1nc(C(=O)Nc2ccn(C)n2)cn2cc([C@@]34CC[C@@](C)(C3)OC4)nc12 (single isomer, unassigned) [Example 592] |
| 0.0429 µM | – | COc1cc2nc(C3CCOCC3)cn2cc1C(=O)Nc1cccn(C(C)C)c1=O [Example 192] |
| 0.0008 µM | – | CC(C)Oc1nc2nc(C34COC(C)(C3)C4)cn2cc1C(=O)Nc1cnn2cc(C(F)F)cnc12 [Example 369, N-(6-(difluoromethyl)pyrazolo[1,5-a]pyrimidin-3-yl)-7-isopropoxy-2-(1-methyl-2-oxabicyclo[2.1.1]hexan-4-yl)imidazo[1,2-a]pyrimidine-6-carboxamide] |
| 0.0031 µM | – | CCOc1nc(C(=O)Nc2cccc3ccnn23)cn2cc(C34COC(C)(C3)C4)nc12 [Example 489, 8-Ethoxy-2-(1-methyl-2-oxabicyclo[2.1.1]hexan-4-yl)-N-(pyrazolo[1,5-a]pyridin-7-yl)imidazo[1,2-a]pyrazine-6-carboxamide] |
| – | 0.0003 µM | CC(C)Oc1nc2nc(C34COC(C)(C3)C4)cn2cc1C(=O)Nc1cccc2c1OCC2 [Example 377, N-(2,3-dihydrobenzofuran-7-yl)-7-isopropoxy-2-(1-methyl-2-oxabicyclo[2.1.1]hexan-4-yl)imidazo[1,2-a]pyrimidine-6-carboxamide trifluoroacetate] |
| 0.0052 µM | – | CCOc1nc(C(=O)Nc2cccnc2OC)cn2cc(C34COC(C)(C3)C4)nc12 [Example 225] |
| – | 0.0351 µM | CCc1cccc(NC(=O)c2cn3cc(C4CC(OC)C4)nc3cc2OC)n1 (stereo not drawn) [Example 61] |
| – | 0.0082 µM | COc1cccc(NC(=O)c2cn3cc(C45COC(C)(C4)C5)nc3c(F)c2OC(C)C)n1 [Example 548, 8-Fluoro-7-isopropoxy-N-(6-methoxypyridin-2-yl)-2-(1-methyl-2-oxabicyclo[2.1.1]hexan-4-yl)imidazo[1,2-a]pyridine-6-carboxamide trifluoroacetate] |
| 0.0081 µM | – | CCOc1nc(C(=O)Nc2cccc(Cl)c2F)cn2cc(C34COC(C)(C3)C4)nc12 [Example 488, N-(3-chloro-2-fluorophenyl)-8-ethoxy-2-(1-methyl-2-oxabicyclo[2.1.1]hexan-4-yl)imidazo[1,2-a]pyrazine-6-carboxamide] |
| 0.0006 µM | – | CC(C)Oc1cc2nc(C34COC(C)(C3)C4)cn2cc1C(=O)Nc1cccc2ccnn12 [Example 221] |
| 0.0008 µM | – | CC(C)Oc1nc2nc(C34CCC(C)(CC3)OC4)cn2cc1C(=O)Nc1cnn2cccnc12 [Example 431] |
| 0.312 µM | – | COc1cc2nc(C3CCOCC3)cn2cc1C(=O)Nc1cnn(C)c1C1CC1 [Example 186] |
| 0.0006 µM | – | C[C@@H](Oc1cc2nc(C34COC(C)(C3)C4)cn2cc1C(=O)Nc1cccc(C(F)F)n1)C(F)(F)F (single isomer, unassigned) [Example 618] |
| 0.0002 µM | – | CC(C)Oc1cc2nc([C@@]34CC[C@@](C)(C3)OC4)cn2cc1C(=O)Nc1cccn(C(F)F)c1=O (single isomer, unassigned) [Example 624] |
| 0.0065 µM | – | CCOc1nc(C(=O)Nc2ccn(C(F)F)n2)cn2cc(C34COC(C)(C3)C4)nc12 [Example 490, N-(1-(difluoromethyl)-1H-pyrazol-3-yl)-8-ethoxy-2-(1-methyl-2-oxabicyclo[2.1.1]hexan-4-yl)imidazo[1,2-a]pyrazine-6-carboxamide] |

| SMILES | IC50 | IC50 [1] |
| --- | --- | --- |
| Cn1cc(-c2cccc(NC(=O)c3cn4cc(C56COC(C)(C5)C6)nc4cc3OC3CCC3)n2)cn1 [Example 520, 7-Cyclobutoxy-N-(6-(1-methyl-1H-pyrazol-4-yl)pyridin-2-yl)-2-(1-methyl-2-oxabicyclo[2.1.1]hexan-4-yl)imidazo[1,2-a]pyridine-6-carboxamide] | 0.0001 µM | – |
| CC12CC(c3cn4cc(C(=O)Nc5cccn(C6CC6)c5=O)c(OC5CCC5)nc4n3)(CO1)C2 [Example 651, 7-Cyclobutoxy-N-(1-cyclopropyl-2-oxo-1,2-dihydropyridin-3-yl)-2-(1-methyl-2-oxabicyclo[2.1.1]hexan-4-yl)imidazo[1,2-a]pyrimidine-6-carboxamide] | – | 0.0005 µM |
| Cc1cc(-n2ccc(NC(=O)c3cn4cc(C56CCC(C)(C5)OC6)nc4cc3OC3CCC3)n2)ccn1 (stereo not drawn) [Example 531, 7-Cyclobutoxy-2-(1-methyl-2-oxabicyclo[2.2.1]heptan-4-yl)-N-(1-(2-methylpyridin-4-yl)-1H-pyrazol-3-yl)imidazo[1,2-a]pyridine-6-carboxamide] | 0.0008 µM | – |
| O=C(Nc1cccc(C(F)F)n1)c1cn2cc(C3CC3)nc2cc1OC1CCC1 [Example 474, 7-Cyclobutoxy-2-cyclopropyl-N-(6-(difluoromethyl)pyridin-2-yl)imidazo[1,2-a]pyridine-6-carboxamide] | 0.0007 µM | – |
| Cn1cccc(NC(=O)c2cn3cc(C45CCC(C)(C4)OC5)nc3cc2OC2CCC2)c1=O (stereo not drawn) [Example 422, 7-Cyclobutoxy-N-(1-methyl-2-oxo-1,2-dihydropyridin-3-yl)-2-(1-methyl-2-oxabicyclo[2.2.1]heptan-4-yl)imidazo[1,2-a]pyridine-6-carboxamide] | 0.0005 µM | – |
| Cn1cccc(NC(=O)c2cn3cc(C45COC(C)(C4)C5)nc3cc2OC2CCC2)c1=O [Example 424, 7-Cyclobutoxy-N-(1-methyl-2-oxo-1,2-dihydropyridin-3-yl)-2-(1-methyl-2-oxabicyclo[2.1.1]hexan-4-yl)imidazo[1,2-a]pyridine-6-carboxamide] | 0.0007 µM | – |
